Source: patent US12096770B2, “Method for preparing an insect repellent agent” (CENTRE NATIONAL DE LA RECHERCHE SCIENTIFIQUE, priority 2019, dated 2024)
≈ marks a conversion by molar mass, not a printed value. Where “and” joins values, the source holds several entries; their conditions need not be identical. Identical values can stand only once. Each block holds one compound with its values, some of them ahead of it.

Columns and labels:
[1] = system: olfactory receptors of Aedes albopictus; experiment: Orientation tests in ElectroAntennogGraphy coupled with Gas Chromatography
Method: Orientation tests in ElectroAntennogGraphy coupled with Gas Chromatography were carried out.

Aedes albopictus = experiment: Behavioural (blood-feeding) repellency test on tiger mosquitoes with feeders covered by pig intestinal skin; assay type: in vivo; conditions: for effect of added compound on repellent activity of PMD: added to commercial cis/trans PMD 75/25 at 200 mg/m^2 in EtOH; for % Repellency: 1 hour, relative to EtOH negative control, mean ± standard deviation of 16 replicates
Method: Testing was performed as to the activity of the compositions obtained by the method according to the invention on the behaviour of the tiger mosquito, Aedes albopictus.
The behavioural tests were carried out at the Montpellier Vectopôle, which is a research centre that collaborates with the WHO for the evaluation of insecticides in public health.
The tests were carried out on mosquitoes aged 5 to 9 days old after their evolution from pupae to adult.
In preparation for the experiment, the mosquitoes were […] on the day prior thereto, in order to promote their appetite for the test to occur the subsequent day.
Each cup contains a damp cotton. The female mosquitoes were removed from the cage making use of a tube that enables aspiration thereof. They were then introduced into each experiment cup (10 mosquitoes per cup).
The tests were carried out on plexiglass racks serving as supports for glass bells known as feeders. The latter are connected to each other by plastic pipes wherein water circulates at 37° C.
Pig intestinal skin was used to mimic human skin in the experiment. The pieces of intestinal skin are positioned and stretched over the feeders.
The repellent is diluted in ethyl alcohol (aka ethanol or EtOH) and is deposited on the skin using a micropipette and then spread over the entire surface. […] If the composition tested is a mixture of at least two compounds, one of which is PMD, the said composition is diluted in ethanol until 0.02036 mg/μL of PMD is obtained.
The feeders are turned over, then 300 μL of sheep blood are placed in each feeder. The cups are inserted under each feeder.
Polystyrene plates are inserted between the lines of repellent so as to avoid possible interactions of odours. The duration of the experiment is one hour. The cups are then placed in a freezer at −20° C. for a period of 40 minutes. After freezing, the contents of one cup are placed between two sheets of paper, with the entirety thereof then being crushed with a plexiglass plate. The counting of the blood-fed (engorged) mosquitoes is done based on the number of red dots on the sheet of paper. The results are expressed as a percentage of repellency (100% −X% of blood-feeding). The percentage of blood-feeding is defined in relation to the EtOH negative control. DEET and commercial cis/trans PMD 75/25 at 200 mg/m^2 were used as positive controls.
The results obtained were statistically analysed using R software (R Development Core Team. R: A language and environment for statistical computing. R Foundation for Statistical Computing, Vienna, Austria. ISBN 3-900051-07-0, 2013) and represent the mean of 16 replicates. The percentage repellency values are presented as a mean±standard deviation. The R software also makes it possible to compare two percentage repellency values by means of calculating the quantity p. This quantity p is a probability.

acetylcholinesterase = conditions: cited from earlier work

recognition in ElectroAntennogGraphy [1]: recognised at very low doses
SMILES: C=C1CC/C=C(\C)CC[C@@H]2[C@@H]1CC2(C)C [caryophyllene, (1R,4E,9S)-4,11,11-trimethyl-8-methylidenebicyclo[7.2.0]undec-4-ene]
effect of added compound on repellent activity of PMD (Aedes albopictus): enhances the repellent activity of PMD

recognition in ElectroAntennogGraphy [1]: recognised at very low doses
SMILES: CC(C)=CCCC(C)CCO (stereo not drawn) [citronellol, 3,7-dimethyloct-6-en-1-ol]

SMILES: CC(C)=CCCC(C)CC1OC2CC(C)CCC2C(C)(C)O1 (stereo not drawn) [acetals]
effect of added compound on repellent activity of PMD (Aedes albopictus): enhance the repellent activity of PMD

SMILES: CC1CCC(C(C)(C)O)C(O)C1 (racemic) [Commercial cis/trans PMD 75/25, p-menthane-3,8-diol]
% Repellency (Aedes albopictus; 200 mg/m^2 (of PMD) in EtOH): 79 ± 4% and 59 ± 14% and 68 ± 2% and 55 ± 10% and 60 ± 5% and 65 ± 8% and 69 ± 13% and 63 ± 9% and 59 ± 9% and 56 ± 13%
% Repellency (Aedes albopictus; 200 mg/m^2 (of PMD) in EtOH, listed as Commercial cis/trans PMD 75/25 derived from RS citronellal (racemic mixture)): 34 ± 1%
ED 50 expressed as concentration (Aedes albopictus; concentration in EtOH tantamount to 200 mg/m^2): 20.36 mg/mL (≈ 118 mM)
ED 50 (median effective dose) (Aedes albopictus; dose deposited on skin): 200 mg/m^2

SMILES: CC(C)=CCCC(C)CC=O (stereo not drawn) [citronellal, 3,7-dimethyloct-6-en-1-al]
effect of added compound on repellent activity of PMD (Aedes albopictus): does not boost PMD activity

SMILES: CC1CCC(C(C)(C)O)C(O)C1 (mixture of isomers) [Commercial cis/trans PMD 75/25 derived from R citronellal] [p-menthane-3,8-diol]
% Repellency (Aedes albopictus; 200 mg/m^2 (of PMD) in EtOH): 24 ± 2%

SMILES: CC1CCC(C(C)(C)O)C(O)C1 (stereo not drawn) [Commercial cis PMD, p-menthane-3,8-diol]
% Repellency (Aedes albopictus; 200 mg/m^2 (of PMD) in EtOH): 64 ± 15%

SMILES: CC1CCC(C(C)(C)O)C(O)C1 (mixture of isomers) [Commercial cis/trans PMD 75/25 derived from S citronellal] [p-menthane-3,8-diol]
% Repellency (Aedes albopictus; 200 mg/m^2 (of PMD) in EtOH): 41 ± 3%

SMILES: CC1CCC(C(C)(C)O)C(O)C1 (stereo not drawn) [PMD, (2-hydroxypropan-2-yl)-5-methylcyclohexan-1-ol]
recognition in ElectroAntennogGraphy [1]: recognised at very low doses

SMILES: CCN(CC)C(=O)c1cccc(C)c1 [DEET, N,N diethyl-meta-toluamide]
acetylcholinesterase inhibition (acetylcholinesterase): inhibits
% Repellency (Aedes albopictus; 110 mg/m^2 in EtOH): 63 ± 5% and 49 ± 4% and 68 ± 10% and 43 ± 1% and 41 ± 6% and 63 ± 8% and 73 ± 7% and 28 ± 8%

SMILES: CC1CCC(C(C)(C)O)C(O)C1 (stereo not drawn) [Commercial trans PMD, p-menthane-3,8-diol]
% Repellency (Aedes albopictus; 200 mg/m^2 (of PMD) in EtOH): 57 ± 6%

SMILES: C=C(C)C1CCC(C)CC1O (stereo not drawn) [isopulegol, 5-methyl-2-prop-1-en-2-ylcyclohexan-1-ol]
effect of added compound on repellent activity of PMD (Aedes albopictus): may enhance the repellent activity of PMD

SMILES: CC1CCC(C(C)(C)O)C(O)C1 (mixture of isomers) [Commercial cis/trans PMD 60/40, p-menthane-3,8-diol]
% Repellency (Aedes albopictus; 200 mg/m^2 (of PMD) in EtOH): 68 ± 15%
